Measurements taken from patent US8084431B2, “Method for inhibiting activation of macrophages, inhibiting formation of osteoclasts, inhibiting function of osteoclasts, and/or activating osteoblasts” (China Medical University, priority 2008, dated 2011).
Marks after values point to notes of the source that are not given here.

Experiments:
[1] = test system: nitric oxide synthase (iNOs), p65, and p50 (NF-κB); experiment: Western blot of iNOs, p65 and p50 in LPS-induced macrophages RAW 264.7; format: cell-based; conditions: kinsenoside 10, 50, 100 μM
Protocol: 24 hours later, the supernatant was collected, and the content of nitric oxide was determined with a Griess reagent (Sigma). After macrophages RAW 264.7 were scratched off the culture plates, proteins were extracted, and then the expression of nitric oxide synthase (iNOs), p65, and p50 (nuclear factor kappa B or NF-κB, transcription factor) was analyzed with the western blot method.

[2] = test system: ICR mice administrated with lipopolysaccharides; experiment: LPS-induced inflammatory cytokines in the blood of ICR mice (ELISA); format: in vivo; conditions: LPS 40 mg/kg, 1 hour
Protocol: ICR mice were intraperitoneally administrated with various dosages (100 mg/kg or 300 mg/kg) of kinsenoside. 30 minutes later, the ICR mice were intraperitoneally administrated with 40 mg/kg of lipopolysaccharides. 1 hour later, the blood of the ICR mice was collected from the retro-orbital sinus, and the concentrations of TNF-α and IL-1β were determined with an ELISA (enzyme linked immunosorbent assay) reagent (eBioscience, Boston, Mass.).

[3] = test system: ICR mice administrated with lipopolysaccharides; experiment: Septic shock death of ICR mice induced by high dosage of lipopolysaccharides; format: in vivo; conditions: kinsenoside 100 or 300 mg/kg intraperitoneal, LPS 80 mg/kg, FIG. 4
Protocol: ICR mice were intraperitoneally administrated with various dosages (100 mg/kg or 300 mg/kg) of kinsenoside. 30 minutes later, the ICR mice were intraperitoneally administrated with 80 mg/kg of lipopolysaccharides, and the death rate of the ICR mice within 72 hours was observed.

[4] = test system: BALB/c mice with collagen-induced rheumatoid arthritis; experiment: Collagen-induced rheumatoid arthritis of BALB/c mice; format: in vivo; conditions: for CD4/278 (ratio of Th2 cells) / CD19/45 (ratio of B cells) / the number of lymphocytes: inguinal lymph nodes; for IgE / IgG1 / TNF-α: serum
Protocol: BALB/c mice were purchased from the National Laboratory Animal Center, Taiwan. 200 μg of type-IT collagen (Sigma) was subcutaneously injected into the tails of the BALB/c mice to induce the rheumatoid arthritis, wherein type-II collagen was emulsified with a Freund's complete adjuvant (Sigma) previously. At the […], 200 μg of type-II collagen was subcutaneously injected into the tails of the BALB/c mice again, and type-II collagen was emulsified with a Freund's incomplete adjuvant (Sigma) previously. From the day of the second injection, the BALB/c mice were administrated orally with kinsenoside (100 or 300 mg/kg) daily for 21 days. After 21 days, the BALB/c mice were sacrificed, and the blood, inguinal lymph nodes, and soles comprising joints of the BALB/c mice were collected for assay.
The concentrations of TNF-α and antibodies IgE and IgG1 in the serum were determined with ELISA method. Antibodies IgE and IgG1 reagents were purchased form Bethyl, Montgomery, Tex., USA.
Lymph nodes were taken from the both sides of the groins of the BALB/c mice, and were sieved to produce a single suspended cell line. The number of lymphocytes was determined with a flow cytometer. In addition, B cells and Th2 cells were stained with antibodies CD19/45 and CD4/278 (eBioscience) to obtain the ratio of B cells and Th2 cells.
The mRNAs were extracted from the right soles and joints of the mice, and the expression of the mRNAs of TNF-α was analyzed with RT-PCR (Reverse Transcription-Polymerase Chain Reaction).

[5] = test system: NF-κB; experiment: EMSA of NF-κB entering nuclei in RANKL-activated macrophages RAW 264.7; format: cell-based; conditions: kinsenoside 10, 25, 50 μM, RANKL 50 ng/ml, 60 minutes, FIG. 7B and 7C
From the text: EMSA (Electrophoresis Mobility Shift Assay) was used to observe the mechanism of the inhibition effect of kinsenoside on the formation of osteoclasts. It is known that RANKL may activate macrophages RAW 264.7 to make NF-κB enter nuclei to stimulate macrophages RAW 264.7 to differentiate into osteoclasts (see Wada T, Nakashima T, Hiroshi N, Penninger J M. 2006. RANKL-RANK signaling in osteoclastogenesis and bone disease. Trends Mol. Med. 12, 17-25).
The DNA sequences used in the EMSA assay are as follows:
The macrophages RAW 264.7 were incubated for 60 minutes, and then proteins in the nuclei were extracted to be analyzed with EMSA. Herein, the DNA sequences used in the EMSA assay are the same as the above experiment.

[6] = test system: MC3T3-E1 cells; experiment: Mineralization of MC3T3-E1 cells (Alizarin red-S); format: cell-based; conditions: 14 days
Protocol: 50 μg/ml of Vitamin C and 10 μM of β-glycerophosphatase were added into culture plates containing MC3T3-E1 cells, and the MC3T3-E1 cells were incubated for 14 days. After 14 days, the mineralization of the MC3T3-E1 cells occurred, and led to the deposition of calcium. Alizarin red-S (Sigma) was used to measure the content of calcium (see Gregory C A, Gunn W G, Peister A, Prockop D J. 2004. An Alizarin red-based assay of mineralization by adherent cells in culture: comparison with cetylpyridinium chloride extract. Anal. Biochem. 329, 77-84).
50 μg/ml of Vitamin C and 10 μM of 0-glycerophosphatase were added into culture plates containing MC3T3-E1 cells, and various concentrations (0, 100, and 1,000 nM) of kinsenoside were added into the culture plates, respectively. The MC3T3-E1 cells were incubated for 14 days, and Alizarin red-S was used to measure the content of calcium.

[7] = kinsenoside 100 mg/kg intraperitoneal
[8] = kinsenoside 300 mg/kg intraperitoneal
[9] = kinsenoside 100 mg/kg oral daily for 21 days
[10] = kinsenoside 300 mg/kg oral daily for 21 days

## O=C1C[C@@H](OC2OC(CO)C(O)C(O)C2O)CO1 (stereo partly drawn) [kinsenoside, 3-(R)-3-β-D-glucopyranosyloxy-butanolide]
[1]; FIG. 2A and 2B
  expression of nitric oxide synthase: reduce the expression of nitric oxide synthase
[1]; FIG. 3A to 3C
  p50 and p65 entering into the nuclei: this effect can be inhibited by kinsenoside
[2]; [7]
  IL-1β: 371.1 ± 127.8 ng/mL
  TNF-α: 680.5 ± 160.2 ng/mL
[2]; [8]
  IL-1β: 272.6 ± 102.6 ng/mL
  TNF-α: 513.4 ± 155.0 ng/mL
[3]
  death rate of the ICR mice within 72 hours: inhibits the death rate
[4]; [9]
  CD4/278 (ratio of Th2 cells): 8.0 ± 0.6 %
  CD19/45 (ratio of B cells): 19.3 ± 2.1 %
  the number of lymphocytes: 3.3 ± 0.6* 10^5/ml
  IgE: 0.15 ± 0.03 absorbance
  IgG1: 2.44 ± 0.05 absorbance
  TNF-α: 825.9 ± 155.4* 10^−12 g/ml
[4]; [10]
  CD4/278 (ratio of Th2 cells): 7.6 ± 0.6 %
  CD19/45 (ratio of B cells): 18.6 ± 3.6 %
  the number of lymphocytes: 2.8 ± 1.0*** 10^5/ml
  IgE: 0.13 ± 0.04 absorbance
  IgG1: 2.41 ± 0.10 absorbance
  TNF-α: 790.0 ± 194.1* 10^−12 g/ml
[4]; right soles and joints, RT-PCR, kinsenoside 100 or 300 mg/kg oral, FIG. 5A and 5B
  expression of mRNAs of TNF-α: alleviates the expression of mRNAs of TNF-α
[5]
  amount of NF-κB that enters into the nuclei: reduces the amount of NF-κB that enters into the nuclei
[6]; 10 nM
  Alizarin red-S: 137 ± 29%
[6]; 100 nM
  Alizarin red-S: 137 ± 27%
[6]; 1000 nM
  Alizarin red-S: 174 ± 42 %
